In ChEMBL document CHEMBL1201862, “PubChem BioAssay data set” (2004) one finds IC50 data, which are given here for two compounds.

The structures appear in SMILES notation. Activity calls are given as the source filed them. No stated cut-off is given here; in the data, actives have a measured IC50 and inactives only a lower limit.

In this assay the target is Envelope glycoprotein gp160 (Human immunodeficiency virus 1, UniProt Q6QLK5). The assay is described as follows: cell-free HIV fusion peptide-binding blockers – biochemical, uHTS, fluorescence dequenching, […] (AID 1986).
Sequence of Envelope glycoprotein gp160 (Q6QLK5 whole entry, the tested form may be a part): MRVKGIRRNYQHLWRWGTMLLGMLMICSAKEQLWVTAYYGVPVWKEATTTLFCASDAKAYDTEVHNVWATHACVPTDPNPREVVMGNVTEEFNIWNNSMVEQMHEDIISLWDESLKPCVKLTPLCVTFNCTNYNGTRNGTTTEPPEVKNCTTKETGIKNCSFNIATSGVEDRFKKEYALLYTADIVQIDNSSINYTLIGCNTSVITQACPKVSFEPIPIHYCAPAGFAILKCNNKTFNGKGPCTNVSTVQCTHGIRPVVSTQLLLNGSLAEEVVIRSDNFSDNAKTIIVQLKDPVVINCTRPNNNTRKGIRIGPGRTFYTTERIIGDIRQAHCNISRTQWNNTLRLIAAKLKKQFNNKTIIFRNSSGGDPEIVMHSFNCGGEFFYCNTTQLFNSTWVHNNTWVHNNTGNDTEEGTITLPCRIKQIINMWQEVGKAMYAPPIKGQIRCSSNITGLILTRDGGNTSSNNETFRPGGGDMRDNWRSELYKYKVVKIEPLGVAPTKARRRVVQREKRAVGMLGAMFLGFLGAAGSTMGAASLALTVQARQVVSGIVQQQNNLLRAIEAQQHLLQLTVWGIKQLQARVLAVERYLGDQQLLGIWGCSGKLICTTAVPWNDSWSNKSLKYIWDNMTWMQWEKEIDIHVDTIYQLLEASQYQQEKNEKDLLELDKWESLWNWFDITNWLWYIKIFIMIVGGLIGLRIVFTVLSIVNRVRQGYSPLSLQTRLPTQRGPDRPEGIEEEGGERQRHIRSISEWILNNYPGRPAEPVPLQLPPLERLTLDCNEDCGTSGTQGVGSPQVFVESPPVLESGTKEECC

Usually IC50 stands for the concentration needed to halve the response being measured. In the case of `CC(C)(C)CC(C)(C)c1ccc(OCC(=O)N/N=C/c2ccc(S(=O)(=O)O)o2)cc1`, the 50% inhibitory concentration (IC50) is 27.8 µM (active).
The figure for `O=C(NN1C(=O)/C(=C/c2ccc(O)c([N+](=O)[O-])c2)SC1=S)c1ccccc1Cl` is 28.2 µM (active).
